In patent US9732087B2, “Diamino-pyridine, pyrimidine, and pyridazine modulators of the histamine H4 receptor” (JANSSEN PHARMACEUTICA NV, priority 2008, dated 2017):

Target: human H4 receptor (Homo sapiens (Human), UniProt Q9H3N8)
Experiment: Binding assay on recombinant human histamine H4 receptor ([3H]histamine competition, SK-N-MC cell membranes)
Conditions: membranes harvested with cell harvester; [3H]histamine 10 nM; average of results; read-out: Cell Harvester Ki
Description: Binding Assay on Recombinant Human Histamine H4Receptor
Cell pellets from SK-N-MC cells stably or transiently transfected with human H4 receptor (NCBI accession No. AF312230) were used for the binding assays. Cell pellets were homogenized in 50 mM Tris/5 mM EDTA buffer and supernatants from an 800 g spin were collected and recentrifuged at 30,000 g for 30 min. Pellets were rehomogenized in 50 mM Tris/5 mM EDTA buffer. […] Membranes were harvested by rapid filtration using the 96 well Brandel system (Table 1, Brandel) or a cell harvester (Table 1, Cell Harvester) using a Whatman GF/C filter or filter plates treated with 0.5% polyethylenimine (PEI), and washed 4 times with ice-cold 50 mM Tris/5 mM EDTA buffer. Filters were then dried, mixed with scintillant and radioactive counts were determined. […] Where activity is shown as greater than (>) a particular value, the value is the highest concentration tested.

| Ki [nM] | SMILES |
| --- | --- |
| 380 | CN[C@H]1CCN(c2cnnc(NCC3CCCCC3)c2)C1 [Example 396, N-(Cyclohexylmethyl)-5-[(3S)-3-(methylamino)pyrrolidin-1-yl]pyridazin-3-amine] |
| 293 | CN[C@@H]1CCN(c2cnnc(NCC3CCC4CC3C4(C)C)c2)C1 (stereo partly drawn) [Example 388, N-[(6,6-Dimethylbicyclo[3.1.1]hept-2-yl)methyl]-5-[(3R)-3-(methylamino)pyrrolidin-1-yl]pyridazin-3-amine] |
| 26.2 | CC(C)Nc1cc(N2CC[C@@H](N)C2)ccn1 [Example 13, 4-[(3R)-3-Aminopyrrolidin-1-yl]-N-(1-methylethyl)pyridin-2-amine] |
| 215 | CN[C@H]1CCN(c2ccnc(NC(C)(C)C)c2)C1 [Example 233, N-tert-Butyl-4-[(3S)-3-(methylamino)pyrrolidin-1-yl]pyridin-2-amine] |
| 5.6 | CN[C@@H]1CCN(c2cnnc(NC3CCCC3)c2)C1 [Example 412, N-cyclopentyl-5-[(3R)-3-(methylamino)pyrrolidin-1-yl]pyridazin-3-amine] |
| 2.62 | CN[C@@H]1CCN(c2ccnc(NC34CC5CC(CC(C5)C3)C4)c2)C1 [Example 218, Adamantan-1-yl-[4-(3R)-(3-methylamino-pyrrolidin-1-yl)-pyridin-2-yl]-amine] |
| 34.9 | CN[C@@H]1CCN(c2ccnc(NCCCO)n2)C1 [Example 167, 3-({4-[(3R)-3-(Methylamine)pyrrolidin-1-yl]pyrimidin-2-yl}amino)propan-1-ol] |
| 79.4 | CN[C@H]1CCN(c2ccnc(NCC34CC5CC(CC(C5)C3)C4)c2)C1 [Example 251, Adamantan-1-ylmethyl-[4-(3S)-(3-methylamino-pyrrolidin-1-yl)-pyridin-2-yl]amine] |
| 67.3 | CN[C@@H]1CCN(c2ccnc(NC3CCOCC3)c2)C1 [Example 222, 4-[(3R)-3-(Methylamino)pyrrolidin-1-yl]-N-(tetrahydro-2H-pyran-4-yl)pyridin-2-amine] |
| 116 | CN[C@@H]1CCN(c2ccnc(N[C@H](C)c3ccccc3)n2)C1 [Example 180, 4-[(3R)-3-(Methylamino)pyrrolidin-1-yl]-N-[(1R)-1-phenylethyl]pyrimidin-2-amine] |
| 138 | CN[C@H]1CCN(c2cnnc(NCC3CCCC3)c2)C1 [Example 382, N-(Cyclopentylmethyl)-5-[(3S)-3-(methylamino)pyrrolidin-1-yl]pyridazin-3-amine] |
| 853 | CN1CCN(c2ccnc(NC[C@H]3CC[C@H]4C[C@@H]3C4(C)C)c2)CC1 [Example 221, N-{[(1S,2S,5S)-6,6-Dimethylbicyclo[3.1.1]hept-2-yl]methyl}-4-(4-methylpiperazin-1-yl)pyridin-2-amine] |
| 10.6 | N[C@@H]1CCN(c2ccnc(NC3CCCCC3)c2)C1 [Example 274, 4-[(3R)-3-Aminopyrrolidin-1-yl]-N-cyclohexylpyridin-2-amine] |
| 239 | CN[C@H]1CCN(c2ccnc(NC[C@H]3CC[C@H]4C[C@@H]3C4(C)C)c2)C1 [Example 224, N-{[(1S,2S,5S)-6,6-Dimethylbicyclo[3.1.1]hept-2-yl]methyl}-4-[(3S)-3-(methylamino)pyrrolidin-1-yl]pyridin-2-amine] |
| 555 | CN[C@H]1CCN(c2ccnc(NCCOC)c2)C1 [Example 238, N-(2-Methoxyethyl)-4-[(3S)-3-(methylamino)pyrrolidin-1-yl]pyridin-2-amine] |
| > 10000 | CNC1CCN(c2cnnc(NCc3ccccn3)c2)C1 (stereo in doubt) [Example 402, 5-[(3S)-3-(Methylamino)pyrrolidin-1-yl]-N-(pyridin-2-ylmethyl)pyridazin-3-amine] |
| 2.2 | CN[C@@H]1CCN(c2ccnc(NCC(C)(C)C)c2)C1 [Example 41, N-(2,2-Dimethylpropyl)-4-[(3R)-3-(methylamino)pyrrolidin-1-yl]pyridin-2-amine] |
| 2150 | CN[C@@H]1CCN(c2cnnc(NCc3ccc(OC)cc3)c2)C1 [Example 400, N-(4-Methoxybenzyl)-5-[(3R)-3-(methylamino)pyrrolidin-1-yl]pyridazin-3-amine] |

Further lines, the molecule ahead of its results:

| SMILES | Ki [nM] |
| --- | --- |
| OCCCNc1cc(N2CCNCC2)cnn1 [Example 314, 3-[(5-Piperazin-1-ylpyridazin-3-yl)amino]propan-1-ol] | > 10000 |
| CN1CCN(c2ccnc(NCCCO)n2)CC1 [Example 161, 3-{[4-(4-Methylpiperazin-1-yl)pyrimidin-2-yl]amino}propan-1-ol] | 1300 |
| c1cc(N2C[C@H]3CCN[C@H]3C2)cc(NC2C3CC4CC(C3)CC2C4)n1 (stereo partly drawn) [Example 266, Adamantan-2-yl-[4-(3aR,6aR)-(hexahydro-pyrrolo[3,4-b]pyrrol-5-yl)pyridin-2-yl]-amine] | 14.5 |
| CC(C)CNc1cc(N2CC[C@@H](N)C2)cnn1 [Example 353, 5-[(3R)-3-Aminopyrrolidin-1-yl]-N-(2-methylpropyl)pyridazin-3-amine] | 106 |
| CC(C)Nc1nccc(N2CCNCC2)n1 [Example 67, Isopropyl-(4-piperazin-1-yl-pyrimidin-2-yl)amine] | 275 |
| Cc1ccc(CNc2cc(N3CCNCC3)cnn2)cc1 [Example 344, N-(4-Methylbenzyl)-5-piperazin-1-ylpyridazin-3-amine] | > 10000 |
| CCCCNc1nccc(N2CC[C@H](N)C2)n1 [Example 196, 4-[(3S)-3-Aminopyrrolidin-1-yl]-N-butylpyrimidin-2-amine] | 224 |
| COCCNc1nccc(N2CCNCC2)n1 [Example 72, N-(2-Methoxyethyl)-4-piperazin-1-ylpyrimidin-2-amine] | 376 |
| Fc1ccc(CNc2cc(N3CCNCC3)ccn2)cc1 [Example 40, N-(4-Fluorobenzyl)-4-piperazin-1-ylpyridin-2-amine] | 790 |
| CC(C)CNc1nccc(N2CC[C@H](N)C2)n1 [Example 198, 4-[(3S)-3-Aminopyrrolidin-1-yl]-N-(2-methylpropyl)pyrimidin-2-amine] | 55 |
| CC1C(Nc2cc(N3CCN(C)CC3)ccn2)C[C@H]2C[C@@H]1C2(C)C (stereo partly drawn) [Example 232, 4-(4-Methylpiperazin-1-yl)-N-[(1S,5R)-2,6,6-trimethylbicyclo[3.1.1]hept-3-yl]pyridin-2-amine] | 716 |
| c1cc(N2C[C@H]3CCN[C@H]3C2)cc(NC2CCOCC2)n1 [Example 277, 4-[(3aR,6aR)-Hexahydropyrrolo[3,4-b]pyrrol-5(1H)-yl]-N-(tetrahydro-2H-pyran-4-yl)pyridin-2-amine] | 97 |
| CN1CCN(c2cnnc(NC3CC4CCC3C4)c2)CC1 (centres unmarked) [Example 406, N-Bicyclo[2.2.1]hept-2-yl-5-(4-methylpiperazin-1-yl)pyridazin-3-amine] | 178 |
| CC(C)(C)Nc1cc(N2C[C@H]3CCN[C@H]3C2)ccn1 [Example 288, N-tert-Butyl-4-[(3aR,6aR)-hexahydropyrrolo[3,4-b]pyrrol-5(1H)-yl]pyridin-2-amine] | 39.5 |
| C[C@@H](Nc1cc(N2C[C@H]3CCN[C@H]3C2)ccn1)C1CCCCC1 [Example 271, N-[(1R)-1-Cyclohexylethyl]-4-[(3aR,6aR)-hexahydropyrrolo[3,4-b]pyrrol-5(1H)-yl]pyridin-2-amine] | 189 |
| COc1ccc(CNc2cc(N3CCNCC3)cnn2)cc1 [Example 347, N-(4-Methoxybenzyl)-5-piperazin-1-ylpyridazin-3-amine] | > 10000 |
| CNC1CN(c2cnnc(NCC3CCCC3)c2)C1 [Example 370, N-(Cyclopentylmethyl)-5-[3-(methylamino)azetidin-1-yl]pyridazin-3-amine] | 224 |
| COCCNc1nccc(N2C[C@H]3CCN[C@H]3C2)n1 [Example 140, 4-[(3aR,6aR)-Hexahydropyrrolo[3,4-b]pyrrol-5(1H)-yl]-N-(2-methoxyethyl)pyrimidin-2-amine] | 135 |
| CC(C)(CO)CNc1nccc(N2CC[C@H](N)C2)n1 [Example 130, 3-({4-[(3S)-3-Aminopyrrolidin-1-yl]pyrimidin-2-yl}amino)-2,2-dimethylpropan-1-ol] | 849 |
| N[C@H]1CCN(c2cnnc(NC3CC3)c2)C1 [Example 336, 5-[(3S)-3-Aminopyrrolidin-1-yl]-N-cyclopropylpyridazin-3-amine] | > 10000 |
| c1cc(N2C[C@H]3CCN[C@H]3C2)nc(NC2CC2)n1 [Example 143, N-Cyclopropyl-4-[(3aR,6aR)-hexahydropyrrolo[3,4-b]pyrrol-5(1H)-yl]pyrimidin-2-amine] | 267 |
| CNC1CN(c2cnnc(NCc3ccccn3)c2)C1 [Example 352, 5-[3-(Methylamino)azetidin-1-yl]-N-(pyridin-2-ylmethyl)pyridazin-3-amine] | > 10000 |
| c1cc(N2CCNCC2)nc(NCC2CCCC2)n1 [Example 187, N-(Cyclopentylmethyl)-4-piperazin-1-ylpyrimidin-2-amine] | 71.5 |
| C[C@@H](Nc1cc(N2CCN(C)CC2)ccn1)C1CCCCC1 [Example 214, N-[(1R)-1-Cyclohexylethyl]-4-(4-methylpiperazin-1-yl)pyridin-2-amine] | 416 |
| CN1CCN(c2ccnc(NCc3ccc(F)cc3)c2)CC1 [Example 249, N-(4-Fluorobenzyl)-4-(4-methylpiperazin-1-yl)pyridin-2-amine] | 257 |
| CC1(C)[C@H]2CC[C@H](CNc3nccc(N4C[C@H]5CCN[C@H]5C4)n3)[C@@H]1C2 [Example 104, N-{[(1S,2S,5S)-6,6-Dimethylbicyclo[3.1.1]hept-2-yl]methyl}-4-[(3aR,6aR)-hexahydropyrrolo[3,4-b]pyrrol-5(1H)-yl]pyrimidin-2amine] | 1050 |
